Here are results for 18 compounds from patent publication US20220289732A1, “HETEROCYCLIC WDR5 INHIBITORS AS ANTI-CANCER COMPOUNDS” (NOVARTIS AG, priority 2019, published 2022).

Assay [1] deals with wild type MLL1 four-member complex (MLL1-4C) (Homo sapiens, UniProt P61964). The assay is described as follows: MLL1 LC-MS assay (SAH production). The format is biochemical. The conditions noted are these: read-out: (b) MLL LCMS Peptide Val.v.1 Qualified AC50. The procedure: The compounds of the present disclosure were serially and separately diluted 3-fold in DMSO to obtain a total of eight or twelve concentrations. Then the test compounds at each concentration (120 nL of each) were transferred by Mosquito into white Proxiplate plus 384-well microplate (PerkinElmer). Solutions (6 μL) of 60 nM wild type MLL1 four-member complex (MLL1-4C) and 5 μM SAM in the reaction buffer (20 mM Tris-HCl, pH8.0, 0.01% Tween 20, 1 mM DTT, 10 mM MgCl2, 0.01% BSA) were added to the wells that were then incubated with the test compound for 20 min. A 6 μL solution of 20 μM of the peptide substrate H3K4me0 (histone H3[1-21]-Biotin) in the reaction buffer was added to initiate each reaction. The final components in the reaction solution include 30 nM MLL1-4C, 2.5 μM SAM, and 10 μM H3K4me0 with varying concentration of the compounds. A positive control consisted of 30 nM MLL1-4C, 2.5 μM SAM, and 10 μM substrate in the absence of the test compound, and a negative control consisted of 2.5 μM SAM, and 10 μM substrate only. Each reaction was incubated at rt for 120 min, then stopped by addition of 3 μL per of quench solution (2.5% TFA with 320 nM d4-SAH). The reaction mixture was centrifuged (Eppendorf centrifuge 5810, Rotor A-4-62) for 2 min at 2000 rmp. The SAH production from the enzymatic assays were monitored by LC-MS/MS on an API 4000 triple quadrupole mass spec with Turbolon Spray (Applied Biosystem) coupled with Prominenece UFLC (Shimazu). The level of SAH production were then normalized based on the values coming from the positive and negative controls to give percent enzyme activities. The data were then fit to a dose response equation using the program Helios (Novartis) to get the IC50 values of the test compound. Helios is a Novartis in-house assay data analysis software using the methods described by Normolle, D. P., Statistics in Medicine, 12:2025-2042 (1993); Formenko, I. et al., Computer Methods and programs in Biomedicine, 82, 31-37 (2006); Sebaugh, J. L., Pharmaceutical Statistics, 10:128-134 (2011); Kelly, C. et al., Biometrics, 46(4):1071-1085 (1990); and Kahm, M, et al., Journal of Statistical Software, 33(7):(2010) (grofit: Fitting Biological Growth Curves with R, pages 1-21, available at http://www.jstatsoft.org/).

In assay [2] the target is WDR5 (Homo sapiens, UniProt P61964). The assay is described as follows: WDR5 HTRF binding assay. The conditions noted are these: read-out: (a) WDR5 HTRF Pep Val v.1[Inhibitor/IC50]Qualified AC50. As for the experimental part:
The compounds were serially diluted 3-fold in DMSO to obtain a total of twelve concentrations. Then the test compounds at each concentration (90 nL of each) were transferred by Mosquito in the white Proxiplate plus 384-well microplate (Perkin Elmer). The assay mixture (typical 9 μL) containing 6 nM WDR5 and 20 nM Biotin-MLL1 WIN peptide (3762-3773) in the assay buffer (25 mM Hepes, pH7.5, 0.05% Tween 20, 2 mM DTT, 100 mM NaCl, 0.1% BSA) were added to the wells. For counter assay, a 9 μL solution of 15 nM Biotin-PEG-His peptide was added into the wells. After 20 min incubation at rt, a 3 μL detection solution containing 14 μg/ml Phycolink Streptavidin Allophycocyanin (Prozyme), 2 nM Anti-His-Eu (PerkinElmer) in assay buffer was then added. After 1 hr incubation, the plate was read in the EnVision reader (PerkinElmer) using the HTRF protocol (The protocol set-up: Lance/Delfia dual enhancer mirror, excitation at 320 UV2 (TRF), emission at APC665, 2nd emission at EuropiμM 615). HTRF signals were normalized based on the reading coming from the positive (maximum signal control) and negative controls (minimum signal control) to give percentage of activities left. The data were then fit to a dose response equation using the program Helios (Novartis) to get the IC50 values. Helios is a Novartis in-house assay data analysis software using the methods described by Normolle, D. P., Statistics in Medicine, 12:2025-2042 (1993); Formenko, I. et al., Computer Methods and programs in Biomedicine, 82, 31-37 (2006); Sebaugh, J. L., Pharmaceutical Statistics, 10:128-134 (2011); Kelly, C. et al., Biometrics, 46(4):1071-1085 (1990); and Kahm, M, et al., Journal of Statistical Software, 33(7):(2010) (grofit: Fitting Biological Growth Curves with R, pages 1-21, available at http://www.jstatsoft.org/).

The test system of assay [3] is MV4-11 cells. The experiment in a line: MV4-11 6-day cell growth CTG (CellTiter-Glo) assay. The class given is cell-based. As to conditions: Homo sapiens, MV4-11, 144 h, 6 days, read-out: (c) MLL/WDR5 cell proliferation assay//MLL/WDR5 proliferation MV4:11 Qualified AC50. The procedure: MV4-11 6-Day Cell Growth CTG (CellTiter-Glo) Assay
Acute myeloid leukemia cell MV4-11 (ATCC® CRL-9591™) was cultured with RPMI 1640 medium (Thermo Fisher Scientific, cat #11875) supplemented with 10% FBS (Thermo Fisher Scientific, cat #10099141) in humidified incubator at 37° C., 5% CO2. To assess the effect of WDR5 inhibitor on cell growth, the compound of the present invention was dissolved in DMSO and serially diluted at 1:3 for 12 points starting from 10 mM then 200 nL for the replicate of each dose per well was dispensed to Viewplate-384 Black (Perkin Elmer). Exponentially growing MV4-11 cells were seeded at the density of 300 cells per well in 40 μL to the plate, so the final compound working concentration starts from 50 μM. After 6 days, 40 μL CellTiter-Glo (Promega, cat #G7573) was added into the cell culture well and luminescence was read with Envision (Perkin Elmer) to determine the viable cells. The percentage inhibition was calculated against the samples treated with DMSO only and the data were used for dose response curve fitting in GraphPad Prism to get the IC50 of representative compound of present invention, which reflects the inhibition of WDR5 activity in the proliferation of MV4;11.

SMILES strings stand for the structures.

Take `CCOc1cc([C@H](C)N2CCc3c(cc(CCN4C[C@@H](O)C[C@@H]4C)cc3-c3ccc(F)nc3C)C2=O)ncc1C#N` [Example 227]: the figures for the AC50 in assay [1] and in assay [3] were 10 to 1000 nM and 1000 to 25000 nM, respectively. Besides, in assay [2], the IC50 was 10 to 1000 nM.
Turning to `CCOc1cc([C@H](C)N2CCc3c(cc(Cn4ccnc4C)cc3-n3nc(C)nc3C)C2=O)ncc1C#N` (single isomer, unassigned) [Example 265], the AC50 in assay [1] and in assay [3] was 10 to 1000 nM each time. Besides, the IC50 in assay [2] was under 10 nM.
For `CCOc1cc([C@H](C)N2CCc3c(cc(Cn4cc(C)nc4C)cc3-c3cn(C)nc3C)C2=O)ncc1C#N` [Example 273], the AC50 in assay [1] and in assay [3] was 10 to 1000 nM throughout. In addition, the IC50 in assay [2] was under 10 nM.
Regarding `CCOc1cc(C(C)N2CCc3c(cc(CCN(C)CC)cc3-c3cc(Cl)nnc3Cl)C2=O)ncc1C#N` (stereo not shown) [Example 168, 6-(1-(5-(3,6-dichloropyridazin-4-yl)-7-(2-(ethyl(methyl)amino)ethyl)-1-oxo-3,4-dihydroisoquinolin-2(1H)-yl)ethyl)-4-ethoxynicotinonitrile], the AC50 in assay [1] and in assay [3] was 10 to 1000 nM in each case. For the same compound, in assay [2], the IC50 was under 10 nM.
With `CCOc1cc([C@H](C)N2CCc3c(cc(CCN4CC[C@H]4CO)cc3-c3ccc(F)nc3C)C2=O)ncc1C#N` [Example 243], the AC50 in assay [1] and in assay [3] was 10 to 1000 nM throughout. Further, the IC50 in assay [2] was in the range of 10 to 1000 nM.
Regarding `CCOc1cc([C@H](C)N2CCc3c(cc(CCN(C)CC)cc3-c3ccc(N)nc3C(F)(F)F)C2=O)ncc1C#N` [Example 198, (S)-6-(1-(5-(6-amino-2-(trifluoromethyl)pyridin-3-yl)-7-(2-(ethyl(methyl)amino)ethyl)-1-oxo-3,4-dihydroisoquinolin-2(1H)-yl)ethyl)-4-ethoxynicotinonitrile], the AC50 was 10 to 1000 nM in assay [1] and under 10 nM in assay [3]. In assay [2], the IC50 was in the range of 10 to 1000 nM.
In the case of `CCOc1cc(CN2CCc3c(cc(CCN4C[C@@H](O)[C@H]4C)cc3-c3cn(C)c(=O)cc3C(F)(F)F)C2=O)ncc1C#N` [Example 224], the AC50 in assay [1] and in assay [3] was 10 to 1000 nM each time. Also, the IC50 in assay [2] lay in the range of 10 to 1000 nM.
For the compound `CCOc1cc([C@H](C)N2CCc3c(CN(C)C)cc(Cn4ccnc4NC)cc3C2=O)ncc1Cl` [Example 20, (S)-2-(1-(5-chloro-4-ethoxypyridin-2-yl)ethyl)-5-((dimethylamino)methyl)-7-((2-(methylamino)-1H-imidazol-1-yl)methyl)-3,4-dihydroisoquinolin-1(2H)-one], the AC50 in assay [1] and in assay [3] was 10 to 1000 nM throughout. The IC50 in assay [2] was 10 to 1000 nM.
With `CNc1nccn1Cc1cc(CN(C)C2CC2)c2c(c1)C(=O)N([C@@H](C)c1cnc(F)c(OC)c1)CC2` [Example 15, (S)-5-((cyclopropyl(methyl)amino)methyl)-2-(1-(6-fluoro-5-methoxypyridin-3-yl)ethyl)-7-((2-(methylamino)-1H-imidazol-1-yl)methyl)-3,4-dihydroisoquinolin-1(2H)-one], the AC50 in assay [1] and in assay [3] was 10 to 1000 nM in each case. Also, in assay [2], the IC50 was 10 to 1000 nM.
On to `CCOc1cc([C@H](C)N2CCc3c(cc(CCN(C)CC)cc3-c3cc(C)ncc3C)C2=O)ncc1C#N` [Example 163, (S)-6-(1-(5-(2,5-dimethylpyridin-4-yl)-7-(2-(ethyl(methyl)amino)ethyl)-1-oxo-3,4-dihydroisoquinolin-2(1H)-yl)ethyl)-4-ethoxynicotinonitrile], for which the AC50 in assay [1] and in assay [3] was 10 to 1000 nM in each case. Moreover, in assay [2], the IC50 is under 10 nM.
For the compound `CCOc1cc([C@H](C)N2CCc3c(cc(Cn4ccnc4C)cc3-c3cn(C)c(=O)cc3C(F)(F)F)C2=O)ncc1F` (single isomer, unassigned) [Example 278], the AC50 in assay [1] was 10 to 1000 nM; in assay [3], under 10 nM. Moreover, the IC50 in assay [2] is under 10 nM.
Regarding `CCOc1cc(CN2CCc3c(cc(Cn4ccnc4C)cc3-c3cn(S(C)(=O)=O)nc3C)C2=O)ncc1C#N` [Example 301], the AC50 in assay [1] lay within 10 to 1000 nM. Moreover, the IC50 in assay [2] was under 10 nM.
`CCOc1cc(C(C)N2CCc3c(cc(CCN(C)CC)cc3-n3cccn3)C2=O)ncc1C#N` (stereo not shown) [Example 209]: the AC50 in assay [1] was 10 to 1000 nM. Also, in assay [2], the IC50 lay within 10 to 1000 nM.
For `CCOc1cc(CN2CCc3c(cc(Cn4ccnc4C)cc3-c3cc(C)nn3C)C2=O)ncc1C#N` [Example 300], the AC50 in assay [1] was 10 to 1000 nM. Further, in assay [2], the IC50 is under 10 nM.
In the same order, the values of `CCOc1cc(C(C)N2CCc3c(cc(CCN(C)CC)cc3C3=CCNCC3)C2=O)ncc1C#N` (stereo not shown) [Example 159, 4-ethoxy-6-(1-(7-(2-(ethyl(methyl)amino)ethyl)-1-oxo-5-(1,2,3,6-tetrahydropyridin-4-yl)-3,4-dihydroisoquinolin-2(1H)-yl)ethyl)nicotinonitrile] are 1000 to 25000 nM and 10 to 1000 nM.
As to `CNc1nccn1Cc1ccc2cnn(C(C)c3cnc(F)c(OC)c3)c(=O)c2c1` (stereo not shown) [Example 109, 2-(1-(6-fluoro-5-methoxypyridin-3-yl)ethyl)-7-((2-(methylamino)-1H-imidazol-1-yl)methyl)phthalazin-1(2H)-one], the AC50 in assay [1] fell in the range of 10 to 1000 nM. Also, the IC50 in assay [2] lay within 10 to 1000 nM.
For the compound `CCOc1cc([C@H](C)N2CCc3c(cc(Cn4ccnc4C)cc3-c3c[nH]nc3C)C2=O)ncc1C#N` [Example 302], the IC50 in assay [2] was under 10 nM.
As to `CNc1nccn1Cc1ccc2ncn(C(C)c3cnc(F)c(OC)c3)c(=O)c2c1` (stereo not shown) [Example 110, 3-(1-(6-fluoro-5-methoxypyridin-3-yl)ethyl)-6-((2-(methylamino)-1H-imidazol-1-yl)methyl)quinazolin-4(3H)-one], the AC50 in assay [1] lay in the range of 10 to 1000 nM. Further, the IC50 in assay [2] is 10 to 1000 nM.
